From PMC13065080, “Discovery of a potent anti-Zika virus benzamide series targeting the viral protein NS4B” (PLOS Pathogens, 2026)
Where two headings read alike, the source gives them in different places.

How the values were obtained:
DENV NS4B = biological target: T1, DENV NS4B (Dengue virus type 3, UniProt P27915); assay: 19F-NMR binding, DENV NS4B; conditions: compound 50 µM, NS4B 5 µM
T1 construct: Overlaid ^19F-NMR spectra of JNJ-1802 in absence (blue) and presence of DENV NS4B (red)

ZIKV PLCal [1] = assay: CPE-based anti-ZIKV concentration-response assay (96-well); type: cell-based, Zika virus; conditions: Vero 76, MOI 0.05, 3-day incubation, CellTiter-Glo, read-out: EC50-CPE ZIKV-PLCal
ZIKV-RLuc = assay: microbe, parasite or virus in culture; type: cell-based, Zika virus; conditions: wild type ZIKV-RLuc, Vero 76, MOI 0.1, three days, read-out: EC50 ZIKV-RLuc
CHIKV = assay: microbe, parasite or virus in culture; type: cell-based
ZIKV MR766 = assay: microbe, parasite or virus in culture; type: cell-based; conditions: CPE-protection
ZIKV DAK-41525-MA = assay: CPE-protection assay, ZIKV DAK-41525-MA; type: cell-based, Zika virus
ZIKV Ib H30656 = assay: microbe, parasite or virus in culture; type: cell-based; conditions: CPE-protection
ZIKV FLR = assay: microbe, parasite or virus in culture; type: cell-based; conditions: CPE-protection
ZIKV PRVABC59 = assay: microbe, parasite or virus in culture; type: cell-based; conditions: CPE-protection
DENV Type 4 H241 = assay: microbe, parasite or virus in culture; type: cell-based; conditions: read-out: EC50 DENV Type 4 H241
YFV 17D = assay: microbe, parasite or virus in culture; type: cell-based; conditions: CPE-protection
JEV SA-14 = assay: CPE-protection assay, JEV; type: cell-based, Japanese encephalitis virus
WNV NY-99 = assay: CPE-protection assay, WNV; type: cell-based, West Nile virus
ZIKV PLCal [2] = assay: Virus yield (titer) reduction assay in Vero 76 cells; type: cell-based, Zika virus; conditions: 5 µM, Vero 76, 0.05 m.o.i., two days
ZIKV PLCal [3] = assay: Virus yield (titer) reduction assay in Huh 7.5.1 cells; type: cell-based, Zika virus; conditions: 1 µM
ZIKV-RLuc NS4B V241L = type: cell-based, Zika virus
ZIKV-RLuc NS4B A245T = type: cell-based, Zika virus
ZIKV-RLuc NS4B V248G = type: cell-based, Zika virus
ZIKV = assay: Combination treatment and synergy scoring, CPE-based anti-ZIKV assay; type: cell-based; conditions: Zika virus; single agent, Fig 6A; read-out: EC50 as a single agent in the dose-response anti-ZIKV assay
ZIKV-RLuc NS4B mutants = type: cell-based, Zika virus
NS3-NS4B interaction = NS3-NS4B interaction (Zika virus, UniProt A0A142I5B9); type: cell-based
[4] = test system: cleavage between NS4B and NS5; assay: NS4B-NS5 polyprotein processing; type: cell-based, Zika virus; conditions: HEK-293T
IFN-α/β induction = assay: Interferon response measurement in ZIKV-infected Huh 7.5.1 cells; type: cell-based; conditions: Huh 7.5.1, ZIKV MOI 3, 24 h.p.i.
Protocol: Huh 7.5.1. cells were infected with ZIKV with/without test compound treatment, and the supernatants were harvested at 24 h.p.i. and tested for interferon- α/β (IFN- α/β) following the manufacturer’s protocol. HEK-Blue IFN-α/β cells (5000 cells/well) were incubated in 96-well plates with 20 µL of test samples for overnight. The following day, 20 µL of the cell supernatant from the HEK-Blue IFN-α/β cells were further incubated with 180 µL of pre-warmed Quanti-blue SEAP reagent (Invivogen) for 2 hours and the O.D. A620 was measured using a Cytation 1 (Agilent). As a positive and negative control, recombinant human IFN-α2b (InvivoGen, 30 pg/ml) and conditioned media from mock-infected Huh 7.5.1. were used.

ZIKV viral E protein = assay: Viral E protein expression by fluorescence microscopy (4G2 antibody); type: cell-based, Zika virus; conditions: ZIKV-infected Vero76, 2 days post infection
in vitro = conditions: African green monkey, CC50 Vero76
miniRFP-NS4B = biological target: T2, miniRFP-NS4B (Zika virus, UniProt A0A142I5B9); assay: Flow cytometric binding assay, miniRFP-NS4B expressing cells; type: cell-based; conditions: 293T cells, vs miniRFP alone, miniRFP-NS5 or NS4B-negative cells
T2 construct: 2K-miniRFPnano3-NS4B polypeptide-expressing plasmid (miniRFP-NS4B, hereafter); expressed in transfected cells; host or cells: HEK-293T
Protocol: HEK-293T cells plated in 12-well plates at 70–80% confluency were transfected with plasmid DNA (1 µg/well) using PEI (Polyethylenimine, 3 µg/well) following a protocol described elsewhere. At 24 hours post transfection, cells were harvested by trypsinization, fixed with 2% PFA, and permeabilized with […]. After blocking for one hour with Intercept Protein-Free blocking buffer (Li-Cor), cells were incubated with MWAC-4163 in PBS with 10% blocking buffer for 30 minutes. After extensive washing, cells were analyzed on an Accuri C6 flow cytometer (BD Sciences) using channel 1 for FAM (ex488 nm/em533) and channel 4 (ex640 nm/em675LP) for miniRFP.

ZIKV PLCal [5] = assay: CPE-based phenotypic HTS assay (1536-well); type: cell-based, Zika virus; conditions: n = 10, uridine supplemented
Protocol: To begin, 600 cells at 2.5 μL/ well of Vero 76 cells in MEM-E supplemented with 10% FBS and 1X Antibiotic-Antimycotic (Gibco 15240-062) were dispensed to 1536 well plate (Aurora EBB0-40000A) and incubated at 37 °C in humidified incubators with 5% CO2 for 24 hours. After that, 30 nL of each compound or vehicle (75% DMSO) were transferred using pintool and further incubated for 2 hours. […] For the negative control wells (N = 24/plate), only virus dilution media was dispensed. Positive control wells contained virus and cells (N = 24/plate). After incubation at 37 °C in humidified incubators with 5% CO2 for 72 hours, plates were incubated for 10 minutes at room temperature, followed by dispensing 5 μL/well CellTiter Glo (Promega). Luminescent signal was detected using PHERAstar FSX (BMG Labtech).
In the primary screen, compounds were tested at a single concentration in singlicate at a final nominal concentration of 6.95 μM. Raw assay data was imported into UF Scripps’ corporate database and subsequently analyzed using Symyx software. Activity of each compound was calculated on a per-plate basis using the following equation: Percent Response of compound = 100*((Test Well-Median Data Wells)/ (Median High Control - Median Data Wells)). […]

## COc1cc(N[C@H](C(=O)c2c[nH]c3ccc(OC(F)(F)F)cc23)c2ccc(Cl)cc2OC)cc(S(C)(=O)=O)c1 [JNJ-1802]
DENV NS4B
  19F-NMR spectrum change with DENV NS4B: a chemical shift perturbation and significant line broadening was seen

## CC(C)(C)c1ccc(C(=O)NC2CCCC2)cc1 [MWAC-3475]
ZIKV PLCal [1]; Zika virus, 72 h
  EC50: 630 ± 650 nM
ZIKV-RLuc; Zika virus, Vero 76, 72 h
  EC50: 390 nM
ZIKV-RLuc
  EC50: 340 ± 280 nM
CHIKV; Chikungunya virus, Vero 76, read-out: EC50-CPE CHIKV
  EC50: > 50000 nM
ZIKV MR766; Zika virus
  EC50: 5930 ± 1260 nM
ZIKV DAK-41525-MA; Zika virus
  EC50: 1540 ± 270 nM
ZIKV Ib H30656; Zika virus
  EC50: 1010 ± 210 nM
ZIKV FLR; Zika virus
  EC50: 1130 ± 110 nM
ZIKV PRVABC59; Zika virus
  EC50: 910 ± 200 nM
DENV Type 4 H241; Dengue virus
  EC50: > 50000 nM
YFV 17D; Yellow fever virus
  EC50: > 50000 nM
JEV SA-14; Japanese encephalitis virus
  EC50: > 50000 nM
WNV NY-99; West Nile virus
  EC50: > 50000 nM
ZIKV PLCal [2]
  reduction in progeny virus titers: > 1000 fold
ZIKV PLCal [3]
  VYR: Virus Yield reduction (Log 10): -0.36 ± 0.07 Log 10
ZIKV-RLuc NS4B V241L
  EC50: 21400 nM
  Fold-increase / fold-change of EC50, NS4B V241L vs wild type: 55.24
ZIKV-RLuc NS4B A245T
  EC50: 2290 nM
  Fold-increase / fold-change of EC50, NS4B A245T vs wild type: 5.91
ZIKV-RLuc NS4B V248G
  EC50: 5120 nM
  Fold-increase / fold-change of EC50, NS4B V248G vs wild type: 13.20
ZIKV
  EC50: 616 nM
ZIKV-RLuc NS4B mutants
  fold decrease in potency by NS4B mutations: 6- to 55 fold
NS3-NS4B interaction
  disruption of NS3-NS4B interaction: did not inhibit either of these steps
[4]
  effect on cleavage between NS4B and NS5: no such effect was detected
IFN-α/β induction
  induction of interferon in the infected cells: did not inhibit either of these steps
ZIKV viral E protein
  intensity and abundance of viral E protein (4G2 antibody): decreased in a concentration-dependent manner
Vero76; African green monkey
  CC50: 28100 ± 6500 nM
In vitro
  CC50: 28000 nM

## COc1ccc([C@@H](C)NC(=O)c2ccc(C(C)(C)C)cc2)cc1 [MWAC-4169, (R)-4-(tert-butyl)-N-(1-(4-methoxyphenyl)ethyl)benzamide]
miniRFP-NS4B
  binding to cells expressing miniRFP-NS4B (FAM-positive frequency): significantly higher degree of binding

## C#C[C@@]1(O)[C@H](O)[C@@H](CO)O[C@H]1n1ccc2c(N)ncnc21 [NITD-008, reference compound]
ZIKV PLCal [1]
  EC50: 360 ± 270 nM
ZIKV-RLuc
  EC50: 310 ± 130 nM
CHIKV; Vero 76, read-out: EC50-CPE CHIKV
  EC50: > 50000 nM
ZIKV MR766
  EC50: 1760 ± 200 nM
ZIKV DAK-41525-MA
  EC50: 890 ± 220 nM
ZIKV Ib H30656
  EC50: 1430 ± 230 nM
ZIKV FLR
  EC50: 1240 ± 90 nM
ZIKV PRVABC59
  EC50: 690 ± 110 nM
DENV Type 4 H241; CPE-protection
  EC50: 180 ± 120 nM
YFV 17D
  EC50: 270 ± 120 nM
JEV SA-14
  EC50: 1850 ± 1100 nM
WNV NY-99
  EC50: 3000 ± 2500 nM
ZIKV-RLuc NS4B V241L; ZIKV RLuc assay
  EC50: 760 nM
  Fold-increase / fold-change of EC50, NS4B V241L vs wild type: 3.44
ZIKV-RLuc NS4B A245T; ZIKV RLuc assay
  EC50: 280 nM
  Fold-increase / fold-change of EC50, NS4B A245T vs wild type: 1.29
ZIKV-RLuc NS4B V248G; ZIKV RLuc assay
  EC50: 200 nM
  Fold-increase / fold-change of EC50, NS4B V248G vs wild type: 0.93
ZIKV PLCal [5]
  EC50: 800 ± 37 nM
Vero76
  CC50: 19000 ± 10300 nM
